The SangsterLogP compilation

Experiment: method code SF-AS, from Mauleón, D.; Pujol, M.; Rosell, G. (1988). B-Adrenergic antagonists: N-alkyl and N-amidoethyl (arylalkoxy)propanolamines related to propranolol. Eur J Med Chem, 23, 421-426.

Q: For `CC(C)NCC(O)COCCCc1ccccc1` (stereo unspecified), which logP is on record?
A: The logP was 1.54.

Q: With `CC(C)C(=O)NCCNCC(O)COCCOc1ccccc1` (stereo unspecified) as the compound, how does the logP read?
A: Its logP is 0.48.

Q: For `CC(C)NCC(O)COCCOc1ccccc1` (stereo unspecified), which logP is on record?
A: The logP was 1.63.

Q: With `CC(C)C(=O)NCCNCC(O)COC1CCCc2ccccc21` (stereo unspecified) as the compound, how does the logP read?
A: Its logP is 1.99.

Q: Which logP does the source give for `CC(C)(C)NCC(O)COCc1ccccc1` (stereo unspecified) here?
A: Its logP is 1.7.

Q: With `CC(C)C(=O)NCCNCC(O)COCc1ccccc1` (stereo unspecified) as the compound, how does the logP read?
A: Its logP is 0.63.

Q: Which logP does the source give for `O=C(Cc1ccccc1)NCCNCC(O)COCc1ccccc1` (stereo unspecified) here?
A: The logP was 1.05.

Q: For `CC(C)NCC(O)COCCCC(C)c1ccccc1` (stereo unspecified), which logP is on record?
A: The logP was 2.95.

Q: For `CC(C)(C)NCC(O)COCCc1ccccc1` (stereo unspecified), which logP is on record?
A: The logP was 2.51.

Q: For `CC(C)C(=O)NCCNCC(O)COCCCc1ccccc1` (stereo unspecified), which logP is on record?
A: The logP was 1.25.

Q: Which logP does the source give for `CC(C)C(=O)NCCNCC(O)COCCc1ccccc1` (stereo unspecified) here?
A: Its logP is 0.95.

Q: Which logP does the source give for `CC(C)C(=O)NCCNCC(O)COc1ccccc1` (stereo unspecified) here?
A: The logP was 1.14.

Q: Which logP does the source give for `CC(C)NCC(O)COCc1ccccc1` (stereo unspecified) here?
A: Its logP is 1.62.

Q: For `O=C(Cc1ccccc1)NCCNCC(O)COCCOc1ccccc1` (stereo unspecified), which logP is on record?
A: The logP was 0.75.

Q: For `CC(C)(C)NCC(O)COc1ccccc1` (stereo unspecified), which logP is on record?
A: Its logP is 1.5.

Q: For `CC(C)C(=O)NCCNCC(O)COCC=Cc1ccccc1` (stereo unspecified), which logP is on record?
A: Its logP is 0.51.

Q: For `CC(C)(C)NCC(O)COC1CCCc2ccccc21` (stereo unspecified), which logP is on record?
A: The logP was 3.55.

Q: Which logP does the source give for `CC(CCCOCC(O)CNC(C)(C)C)c1ccccc1` (stereo unspecified) here?
A: The logP was 2.29.

Q: Which logP does the source give for `CC(C)NCC(O)COCCc1ccccc1` (stereo unspecified) here?
A: Its logP is 1.76.

Q: With `O=C(Cc1ccccc1)NCCNCC(O)COc1ccccc1` (stereo unspecified) as the compound, how does the logP read?
A: Its logP is 0.63.

Q: Which logP does the source give for `CC(C)(C)NCC(O)COCCOc1ccccc1` (stereo unspecified) here?
A: Its logP is 2.35.

Q: Which logP does the source give for `CC(C)NCC(O)COC/C=C/c1ccccc1` (stereo unspecified) here?
A: The logP was 2.15.

Q: With `O=C(Cc1ccccc1)NCCNCC(O)COCCc1ccccc1` (stereo unspecified) as the compound, how does the logP read?
A: Its logP is 1.24.

Q: Which logP does the source give for `O=C(Cc1ccccc1)NCCNCC(O)COC1CCCc2ccccc21` (stereo unspecified) here?
A: Its logP is 1.68.

Q: With `O=C(Cc1ccccc1)NCCNCC(O)COCC=Cc1ccccc1` (stereo unspecified) as the compound, how does the logP read?
A: Its logP is 1.76.

Q: For `CC(C)NCC(O)COC1CCCc2ccccc21` (stereo unspecified), which logP is on record?
A: The logP was 3.42.
